Source: ChEMBL document CHEMBL1150976, “The selectivity of protein kinase inhibitors: a further update” (Biochem J, 2007)

Legend:
[1] = molecular target: Serine/threonine-protein kinase Chk2 (Homo sapiens) (UniProt O96017); assay: Percentage CHK2 activity remaining in the presence of 0.01uM inhibitor
[2] = molecular target: MAP/microtubule affinity-regulating kinase 3 (Homo sapiens) (UniProt P27448); assay: Percentage MARK3 activity remaining in the presence of 0.01uM inhibitor; conditions: filed as antagonist
Sequence of MAP/microtubule affinity-regulating kinase 3 (Homo sapiens) (P27448 whole entry, looked up): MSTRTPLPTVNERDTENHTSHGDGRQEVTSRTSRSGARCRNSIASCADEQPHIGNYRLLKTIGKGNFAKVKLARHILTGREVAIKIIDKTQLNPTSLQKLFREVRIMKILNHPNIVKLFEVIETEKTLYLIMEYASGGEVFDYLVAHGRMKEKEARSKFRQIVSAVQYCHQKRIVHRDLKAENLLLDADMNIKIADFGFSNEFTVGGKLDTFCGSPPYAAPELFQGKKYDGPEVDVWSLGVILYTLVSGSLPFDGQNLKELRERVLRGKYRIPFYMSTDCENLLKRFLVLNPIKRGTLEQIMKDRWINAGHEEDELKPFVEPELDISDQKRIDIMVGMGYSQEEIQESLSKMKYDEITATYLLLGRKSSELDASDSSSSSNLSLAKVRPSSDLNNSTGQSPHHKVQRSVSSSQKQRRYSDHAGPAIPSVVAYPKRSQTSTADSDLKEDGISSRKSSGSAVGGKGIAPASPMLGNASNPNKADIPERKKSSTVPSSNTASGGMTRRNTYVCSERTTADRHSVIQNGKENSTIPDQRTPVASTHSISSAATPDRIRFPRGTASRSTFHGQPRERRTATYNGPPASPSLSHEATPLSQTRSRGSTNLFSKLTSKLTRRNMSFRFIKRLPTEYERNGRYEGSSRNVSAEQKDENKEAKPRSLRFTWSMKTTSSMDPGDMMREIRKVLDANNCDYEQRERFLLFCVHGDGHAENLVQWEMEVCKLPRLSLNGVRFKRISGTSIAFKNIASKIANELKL

[3] = molecular target: T1, 3-phosphoinositide-dependent protein kinase 1 (Homo sapiens) (UniProt O15530); assay: Percentage PDK1 activity remaining in the presence of 0.01uM inhibitor; conditions: filed as antagonist
T1 sequence (whole entry): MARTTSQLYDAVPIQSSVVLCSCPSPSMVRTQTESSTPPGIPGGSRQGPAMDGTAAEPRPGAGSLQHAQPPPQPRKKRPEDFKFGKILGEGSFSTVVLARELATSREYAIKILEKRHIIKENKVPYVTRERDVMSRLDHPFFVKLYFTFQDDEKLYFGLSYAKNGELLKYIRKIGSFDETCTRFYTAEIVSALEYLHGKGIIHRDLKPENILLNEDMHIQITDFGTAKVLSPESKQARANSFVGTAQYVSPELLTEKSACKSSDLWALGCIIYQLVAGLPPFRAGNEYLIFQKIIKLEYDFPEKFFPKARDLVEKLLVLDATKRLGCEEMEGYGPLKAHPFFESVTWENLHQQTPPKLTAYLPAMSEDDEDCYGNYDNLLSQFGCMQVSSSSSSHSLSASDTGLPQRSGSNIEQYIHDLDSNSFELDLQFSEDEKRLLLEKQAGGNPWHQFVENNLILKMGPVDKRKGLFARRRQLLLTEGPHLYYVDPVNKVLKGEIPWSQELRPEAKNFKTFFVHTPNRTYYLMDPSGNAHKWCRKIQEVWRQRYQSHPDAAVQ

[4] = molecular target: Ribosomal protein S6 kinase beta-1 (Homo sapiens, UniProt P23443); assay: Percentage S6K1 activity remaining in the presence of 25uM inhibitor
Sequence of Ribosomal protein S6 kinase beta-1 (P23443 whole entry, looked up): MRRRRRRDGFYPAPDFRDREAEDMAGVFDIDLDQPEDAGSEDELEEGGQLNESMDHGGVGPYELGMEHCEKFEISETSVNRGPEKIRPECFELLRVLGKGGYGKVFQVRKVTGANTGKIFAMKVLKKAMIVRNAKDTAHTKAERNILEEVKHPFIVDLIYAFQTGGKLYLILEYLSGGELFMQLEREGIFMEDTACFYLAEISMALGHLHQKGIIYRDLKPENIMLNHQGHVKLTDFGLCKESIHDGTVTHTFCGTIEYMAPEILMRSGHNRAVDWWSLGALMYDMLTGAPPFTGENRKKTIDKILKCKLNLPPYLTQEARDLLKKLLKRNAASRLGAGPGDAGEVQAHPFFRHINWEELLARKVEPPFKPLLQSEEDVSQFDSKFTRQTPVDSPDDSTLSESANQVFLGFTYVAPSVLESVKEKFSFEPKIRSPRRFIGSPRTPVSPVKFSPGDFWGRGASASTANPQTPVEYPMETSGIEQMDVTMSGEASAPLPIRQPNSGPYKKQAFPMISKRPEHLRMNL

[5] = molecular target: T2, MAP kinase-activated protein kinase 5 (Homo sapiens) (UniProt Q8IW41); assay: Percentage PRAK activity remaining in the presence of 25uM inhibitor
T2 sequence (whole entry): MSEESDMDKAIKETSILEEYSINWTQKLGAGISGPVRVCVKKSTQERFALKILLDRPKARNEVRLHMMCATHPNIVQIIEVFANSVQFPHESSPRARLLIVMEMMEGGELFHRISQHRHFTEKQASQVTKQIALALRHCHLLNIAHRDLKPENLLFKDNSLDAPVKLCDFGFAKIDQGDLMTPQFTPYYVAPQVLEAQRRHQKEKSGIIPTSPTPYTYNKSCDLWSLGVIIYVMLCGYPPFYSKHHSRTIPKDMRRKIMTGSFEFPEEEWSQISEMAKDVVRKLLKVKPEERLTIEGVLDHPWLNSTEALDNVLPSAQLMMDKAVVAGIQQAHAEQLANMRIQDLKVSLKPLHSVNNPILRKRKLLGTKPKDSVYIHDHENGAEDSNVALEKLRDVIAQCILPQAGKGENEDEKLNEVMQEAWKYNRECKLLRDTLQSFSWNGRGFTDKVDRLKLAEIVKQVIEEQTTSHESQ

[6] = molecular target: Serine/threonine-protein kinase pim-2 (Homo sapiens, UniProt Q9P1W9); assay: Percentage PIM2 activity remaining in the presence of 25uM inhibitor
Sequence of Serine/threonine-protein kinase pim-2 (Q9P1W9 whole entry, looked up): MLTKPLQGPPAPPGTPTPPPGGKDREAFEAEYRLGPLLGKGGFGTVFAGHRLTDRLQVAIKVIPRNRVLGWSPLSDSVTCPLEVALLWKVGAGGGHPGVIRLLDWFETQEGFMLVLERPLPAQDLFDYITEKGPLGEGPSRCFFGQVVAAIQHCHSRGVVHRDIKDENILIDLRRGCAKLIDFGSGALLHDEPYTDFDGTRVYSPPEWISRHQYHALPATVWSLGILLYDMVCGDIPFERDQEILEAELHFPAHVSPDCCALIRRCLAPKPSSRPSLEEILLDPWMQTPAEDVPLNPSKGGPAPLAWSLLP

[7] = molecular target: Serine/threonine-protein kinase pim-1 (Homo sapiens, UniProt P11309); assay: Percentage PIM1 activity remaining in the presence of 25uM inhibitor; conditions: filed as antagonist
Sequence of Serine/threonine-protein kinase pim-1 (P11309 whole entry, looked up): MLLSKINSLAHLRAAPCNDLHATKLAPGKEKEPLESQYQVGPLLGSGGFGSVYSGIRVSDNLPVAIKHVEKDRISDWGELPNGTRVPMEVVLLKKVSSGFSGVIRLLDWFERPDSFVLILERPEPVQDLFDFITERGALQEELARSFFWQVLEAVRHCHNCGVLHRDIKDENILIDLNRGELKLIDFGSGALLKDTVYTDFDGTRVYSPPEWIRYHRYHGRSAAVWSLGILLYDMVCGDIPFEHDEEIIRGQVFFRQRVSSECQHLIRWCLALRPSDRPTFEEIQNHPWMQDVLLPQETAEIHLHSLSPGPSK

[8] = molecular target: Serine/threonine-protein kinase Chk2 (Homo sapiens) (UniProt O96017); assay: Percentage CHK2 activity remaining in the presence of 25uM inhibitor
[9] = species on record: Homo sapiens; assay: Percentage PHK activity remaining in the presence of 25uM inhibitor
[10] = molecular target: Homeodomain-interacting protein kinase 3 (Homo sapiens) (UniProt Q9H422); assay: Percentage HIPK3 activity remaining in the presence of 25uM inhibitor
[11] = molecular target: Mitogen-activated protein kinase 3 (Homo sapiens) (UniProt P27361); assay: Percentage ERK1 activity remaining in the presence of 25uM inhibitor
Sequence of Mitogen-activated protein kinase 3 (Homo sapiens) (P27361 whole entry): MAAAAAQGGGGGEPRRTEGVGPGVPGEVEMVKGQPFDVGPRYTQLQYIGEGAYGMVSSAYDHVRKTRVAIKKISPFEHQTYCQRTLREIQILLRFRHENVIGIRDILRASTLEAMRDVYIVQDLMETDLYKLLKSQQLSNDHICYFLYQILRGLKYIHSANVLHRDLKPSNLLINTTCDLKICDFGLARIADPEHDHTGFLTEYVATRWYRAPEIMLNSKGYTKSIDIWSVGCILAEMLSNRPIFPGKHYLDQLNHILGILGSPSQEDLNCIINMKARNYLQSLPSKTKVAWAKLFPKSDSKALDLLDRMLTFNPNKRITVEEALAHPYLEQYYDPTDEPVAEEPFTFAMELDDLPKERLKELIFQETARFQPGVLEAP

[12] = molecular target: Homeodomain-interacting protein kinase 2 (Homo sapiens) (UniProt Q9H2X6); assay: Percentage HIPK2 activity remaining in the presence of 25uM inhibitor
Sequence of Homeodomain-interacting protein kinase 2 (Homo sapiens) (Q9H2X6 whole entry, looked up): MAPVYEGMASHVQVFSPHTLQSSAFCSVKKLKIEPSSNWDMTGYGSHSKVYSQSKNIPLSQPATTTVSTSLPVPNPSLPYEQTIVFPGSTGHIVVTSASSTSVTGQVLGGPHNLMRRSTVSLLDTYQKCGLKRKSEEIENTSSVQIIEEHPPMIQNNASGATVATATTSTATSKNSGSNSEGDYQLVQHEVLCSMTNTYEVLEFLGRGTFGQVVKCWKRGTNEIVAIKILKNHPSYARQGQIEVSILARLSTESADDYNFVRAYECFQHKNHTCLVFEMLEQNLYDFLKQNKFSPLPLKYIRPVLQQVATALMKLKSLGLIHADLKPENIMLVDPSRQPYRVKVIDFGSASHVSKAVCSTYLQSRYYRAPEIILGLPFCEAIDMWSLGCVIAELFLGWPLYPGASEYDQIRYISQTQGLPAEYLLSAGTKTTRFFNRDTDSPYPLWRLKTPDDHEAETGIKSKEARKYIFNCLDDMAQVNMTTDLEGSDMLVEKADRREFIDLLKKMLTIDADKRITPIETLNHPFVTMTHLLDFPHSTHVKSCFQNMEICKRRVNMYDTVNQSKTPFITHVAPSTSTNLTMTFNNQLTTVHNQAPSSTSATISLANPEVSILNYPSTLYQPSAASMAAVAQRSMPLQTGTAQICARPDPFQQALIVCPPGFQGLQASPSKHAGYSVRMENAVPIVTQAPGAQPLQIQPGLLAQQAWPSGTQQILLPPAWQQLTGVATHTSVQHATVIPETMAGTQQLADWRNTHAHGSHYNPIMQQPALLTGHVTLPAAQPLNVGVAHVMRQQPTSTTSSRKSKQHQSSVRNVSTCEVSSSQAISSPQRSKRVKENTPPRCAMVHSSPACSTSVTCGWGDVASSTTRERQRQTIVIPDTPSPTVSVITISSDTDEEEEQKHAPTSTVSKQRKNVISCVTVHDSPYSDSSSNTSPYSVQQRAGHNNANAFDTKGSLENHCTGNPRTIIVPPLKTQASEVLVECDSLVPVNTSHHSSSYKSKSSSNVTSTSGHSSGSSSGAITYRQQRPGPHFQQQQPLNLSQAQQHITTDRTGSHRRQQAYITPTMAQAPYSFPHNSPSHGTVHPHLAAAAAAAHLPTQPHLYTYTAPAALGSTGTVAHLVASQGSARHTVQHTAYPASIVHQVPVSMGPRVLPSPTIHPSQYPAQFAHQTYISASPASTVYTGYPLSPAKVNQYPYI

[13] = molecular target: T3, Inhibitor of nuclear factor kappa-B kinase subunit beta (Homo sapiens) (UniProt O14920); assay: Percentage IKK-beta activity remaining in the presence of 25uM inhibitor
T3 sequence (whole entry): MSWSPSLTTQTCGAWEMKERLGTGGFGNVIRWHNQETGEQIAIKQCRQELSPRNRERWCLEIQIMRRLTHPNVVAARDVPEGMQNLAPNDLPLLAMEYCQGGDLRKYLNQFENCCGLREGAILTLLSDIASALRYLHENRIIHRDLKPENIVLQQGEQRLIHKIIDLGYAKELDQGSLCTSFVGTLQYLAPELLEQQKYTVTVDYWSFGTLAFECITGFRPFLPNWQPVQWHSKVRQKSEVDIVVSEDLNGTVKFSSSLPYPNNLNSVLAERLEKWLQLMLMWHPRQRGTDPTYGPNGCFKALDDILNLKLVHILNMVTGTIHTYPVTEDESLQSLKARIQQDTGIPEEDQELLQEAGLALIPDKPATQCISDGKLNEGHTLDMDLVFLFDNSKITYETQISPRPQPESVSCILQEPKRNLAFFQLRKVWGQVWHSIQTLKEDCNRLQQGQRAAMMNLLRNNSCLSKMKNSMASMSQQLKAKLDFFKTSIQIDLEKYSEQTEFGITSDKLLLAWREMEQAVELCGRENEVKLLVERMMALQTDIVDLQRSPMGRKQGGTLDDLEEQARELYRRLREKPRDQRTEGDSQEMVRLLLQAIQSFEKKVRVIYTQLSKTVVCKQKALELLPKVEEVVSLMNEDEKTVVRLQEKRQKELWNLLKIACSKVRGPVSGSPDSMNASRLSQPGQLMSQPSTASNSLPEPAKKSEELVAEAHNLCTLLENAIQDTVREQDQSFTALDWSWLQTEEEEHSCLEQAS

[14] = molecular target: Mitogen-activated protein kinase 1 (Homo sapiens) (UniProt P28482); assay: Percentage ERK2 activity remaining in the presence of 25uM inhibitor
Sequence of Mitogen-activated protein kinase 1 (Homo sapiens) (P28482 whole entry): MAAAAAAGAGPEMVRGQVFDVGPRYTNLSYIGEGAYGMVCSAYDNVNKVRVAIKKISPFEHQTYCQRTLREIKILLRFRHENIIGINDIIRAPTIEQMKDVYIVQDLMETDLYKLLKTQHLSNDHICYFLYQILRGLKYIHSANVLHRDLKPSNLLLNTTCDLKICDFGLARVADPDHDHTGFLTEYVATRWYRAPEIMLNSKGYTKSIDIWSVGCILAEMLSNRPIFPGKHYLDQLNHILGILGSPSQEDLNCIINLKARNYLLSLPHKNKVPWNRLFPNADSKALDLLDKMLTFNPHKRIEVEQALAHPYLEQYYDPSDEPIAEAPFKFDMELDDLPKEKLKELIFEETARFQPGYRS

[15] = molecular target: MAP/microtubule affinity-regulating kinase 3 (Homo sapiens) (UniProt P27448); assay: Percentage MARK3 activity remaining in the presence of 25uM inhibitor

Sequence of Serine/threonine-protein kinase Chk2 (Homo sapiens) (O96017 whole entry): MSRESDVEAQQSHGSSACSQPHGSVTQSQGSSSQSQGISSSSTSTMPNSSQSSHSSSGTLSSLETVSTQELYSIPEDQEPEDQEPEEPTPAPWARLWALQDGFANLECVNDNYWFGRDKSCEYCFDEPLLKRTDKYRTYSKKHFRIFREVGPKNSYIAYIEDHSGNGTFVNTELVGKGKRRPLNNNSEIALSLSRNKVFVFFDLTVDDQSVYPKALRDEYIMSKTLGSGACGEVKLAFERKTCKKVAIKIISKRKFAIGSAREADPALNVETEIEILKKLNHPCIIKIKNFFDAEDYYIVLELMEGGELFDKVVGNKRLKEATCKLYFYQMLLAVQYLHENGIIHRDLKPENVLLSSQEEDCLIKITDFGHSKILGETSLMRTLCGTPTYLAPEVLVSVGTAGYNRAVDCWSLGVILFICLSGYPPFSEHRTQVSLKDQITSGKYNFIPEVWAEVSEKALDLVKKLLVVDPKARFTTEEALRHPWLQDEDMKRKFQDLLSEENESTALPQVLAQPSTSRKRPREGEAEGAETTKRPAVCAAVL

| Activity ([4]; filed as antagonist) | SMILES | Activity [1] | Activity [2] | Activity [3] | Activity [4] | Activity [5] | Activity [6] | Activity [7] | Activity [8] | Activity [9] | Activity [10] | Activity [11] | Activity [12] | Activity [13] | Activity [14] | Activity [15] |
| --- | --- | --- | --- | --- | --- | --- | --- | --- | --- | --- | --- | --- | --- | --- | --- | --- |
|  | O=C(NCCCNc1nc(Nc2cccc(NC(=O)N3CCCC3)c2)ncc1I)c1cccs1 | 91% | 12% | 30% |  |  |  |  |  |  |  |  |  |  |  |  |
|  | COc1cc(OC)c(/C=C2/C(=O)Nc3ccccc32)c(OC)c1 |  |  |  | 84% | 82% | 75% | 43% | 76% | 86% | 95% | 91% | 96% | 90% | 93% | 88% |
|  | CN[C@@H]1C[C@H]2O[C@@](C)([C@@H]1OC)n1c3ccccc3c3c4c(c5c6ccccc6n2c5c31)C(=O)N[C@H]4O (stereo in doubt) | 96% | 6% | 2% |  |  |  |  |  |  |  |  |  |  |  |  |
| 49% | NCCNS(=O)(=O)c1ccc(Cl)c2ccncc12 |  |  |  |  | 81% | 55% | 28% | 64% | 72% | 86% | 102% | 98% | 87% | 100% | 78% |
